# Reference: publication PMC8260145 (Archives of biochemistry and biophysics, 2021)
# Several values for one entry are separate records, joined by “and”; a condition that tells them apart may be missing. Identical values can stand only once. Like-named read-outs stand apart in the source and are kept apart here.
# Tests used:
# recombinant human CYP3A4 [1] = target: T1, recombinant human CYP3A4 (Homo sapiens, UniProt P08684)
# recombinant human CYP3A5 [2] = target: T2, recombinant human CYP3A5 (Homo sapiens, UniProt P20815); assay: biochemical
# T2 sequence (P20815 whole entry): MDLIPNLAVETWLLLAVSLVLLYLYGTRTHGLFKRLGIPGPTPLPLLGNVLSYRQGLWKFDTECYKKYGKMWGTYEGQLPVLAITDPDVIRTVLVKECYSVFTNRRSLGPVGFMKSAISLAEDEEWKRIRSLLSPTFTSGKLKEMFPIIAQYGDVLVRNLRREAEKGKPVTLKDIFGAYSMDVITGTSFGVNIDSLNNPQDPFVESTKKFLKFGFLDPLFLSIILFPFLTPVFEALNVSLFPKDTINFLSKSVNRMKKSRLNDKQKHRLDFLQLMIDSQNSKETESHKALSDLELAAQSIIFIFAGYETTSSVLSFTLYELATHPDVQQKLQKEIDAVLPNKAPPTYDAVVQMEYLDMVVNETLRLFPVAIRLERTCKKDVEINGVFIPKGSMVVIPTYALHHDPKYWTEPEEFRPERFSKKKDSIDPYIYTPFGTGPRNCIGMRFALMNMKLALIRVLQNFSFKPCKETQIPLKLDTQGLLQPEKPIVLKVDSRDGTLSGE
# [3] = target: T3, recombinant human CYP2C19 (Homo sapiens, UniProt P33261); assay: Inhibition of C152 metabolism in SS
# T3 sequence (P33261 whole entry): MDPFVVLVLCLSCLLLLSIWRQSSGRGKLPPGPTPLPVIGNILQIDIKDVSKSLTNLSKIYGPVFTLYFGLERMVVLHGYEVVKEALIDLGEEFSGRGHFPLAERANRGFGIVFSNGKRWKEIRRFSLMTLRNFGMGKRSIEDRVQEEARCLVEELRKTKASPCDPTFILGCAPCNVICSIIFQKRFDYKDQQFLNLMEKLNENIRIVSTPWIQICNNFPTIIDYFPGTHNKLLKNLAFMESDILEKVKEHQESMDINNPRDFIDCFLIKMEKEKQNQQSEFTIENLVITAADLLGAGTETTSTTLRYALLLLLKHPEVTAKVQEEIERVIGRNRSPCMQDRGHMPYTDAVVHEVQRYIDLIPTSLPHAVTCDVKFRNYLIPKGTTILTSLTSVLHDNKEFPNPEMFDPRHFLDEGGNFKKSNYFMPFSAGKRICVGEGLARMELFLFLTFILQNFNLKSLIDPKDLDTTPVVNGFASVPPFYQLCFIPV
# human liver microsomes [4] = assay: Inhibition of C152 metabolism in human liver microsomes; type: biochemical; conditions: 30 μM C152; for IC50: read-out: IC50 ((+)-N-3-Benzylnirvanol)
# recombinant human CYP2B6 [5] = target: T4, recombinant human CYP2B6 (Homo sapiens, UniProt P20813); assay: Inhibition of C152 metabolism in SS
# T4 sequence (P20813 1-491): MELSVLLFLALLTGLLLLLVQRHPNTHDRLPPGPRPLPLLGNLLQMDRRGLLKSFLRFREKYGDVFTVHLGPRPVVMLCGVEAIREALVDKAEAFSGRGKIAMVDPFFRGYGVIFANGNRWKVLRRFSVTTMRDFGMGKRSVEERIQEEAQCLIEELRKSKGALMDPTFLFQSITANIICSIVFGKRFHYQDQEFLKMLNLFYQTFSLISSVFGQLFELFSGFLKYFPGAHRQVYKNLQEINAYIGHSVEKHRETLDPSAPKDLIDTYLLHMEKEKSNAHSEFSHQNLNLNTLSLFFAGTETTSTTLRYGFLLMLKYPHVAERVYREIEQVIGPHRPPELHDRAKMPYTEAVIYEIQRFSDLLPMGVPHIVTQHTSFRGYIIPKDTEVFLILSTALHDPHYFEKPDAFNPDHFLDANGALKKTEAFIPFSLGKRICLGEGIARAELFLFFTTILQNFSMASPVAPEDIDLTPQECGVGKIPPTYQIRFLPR
# recombinant human CYP3A4 [6] = target: T1, recombinant human CYP3A4; assay: Inhibition of C152 metabolism in SS
# recombinant human CYP3A5 [7] = target: T2, recombinant human CYP3A5; assay: Inhibition of C152 metabolism in SS; conditions: SS(3A5), 30 μM C152
# recombinant human CYP2B6 [8] = target: T4, recombinant human CYP2B6; assay: C152 demethylation, continuous fluorometric assay, Supersomes SS; type: in vitro ADME; conditions: SS(2B6)
# [9] = target: T3, recombinant human CYP2C19; assay: as above; type: in vitro ADME; conditions: SS(2C19)
# recombinant human CYP3A4 [10] = assay: as above; type: in vitro ADME
# recombinant human CYP3A5 [11] = target: T2, recombinant human CYP3A5; assay: as above; type: in vitro ADME; conditions: SS(3A5)
# human liver microsomes [12] = type: in vitro ADME
# CYP2C8 = conditions: cited from earlier work
# CYP2A6 [13] = conditions: cited from earlier work
# CYP2E1 = conditions: cited from earlier work
# CYP2A6 [14] = assay: 7-hydroxylation of coumarin in HLM; type: in vitro ADME, human; conditions: HLM(ODN), added CYP2A6 0
# [15] = HLM(FVT) + added CYP3A5 43 pmol/mg protein (molar ratio 0.125)
# [16] = HLM(ODN) + added CYP3A5 54 pmol/mg protein (molar ratio 0.125)
# [17] = N-demethylation of C152, HLM(ODN), added CYP2A6 0
# [18] = N-demethylation of C152, HLM(ODN), added CYP2A6 54 pmol/mg protein (ratio 0.125)
# [19] = N-demethylation of C152, HLM(ODN), added CYP2A6 108 pmol/mg protein (ratio 0.25)
# [20] = N-demethylation of C152, HLM(ODN), added CYP2A6 216 pmol/mg protein (ratio 0.5)
# [21] = N-demethylation of C152, HLM(ODN), added CYP2A6 433 pmol/mg protein (ratio 1)
# T1 sequence (P08684 2-503 limits assumed): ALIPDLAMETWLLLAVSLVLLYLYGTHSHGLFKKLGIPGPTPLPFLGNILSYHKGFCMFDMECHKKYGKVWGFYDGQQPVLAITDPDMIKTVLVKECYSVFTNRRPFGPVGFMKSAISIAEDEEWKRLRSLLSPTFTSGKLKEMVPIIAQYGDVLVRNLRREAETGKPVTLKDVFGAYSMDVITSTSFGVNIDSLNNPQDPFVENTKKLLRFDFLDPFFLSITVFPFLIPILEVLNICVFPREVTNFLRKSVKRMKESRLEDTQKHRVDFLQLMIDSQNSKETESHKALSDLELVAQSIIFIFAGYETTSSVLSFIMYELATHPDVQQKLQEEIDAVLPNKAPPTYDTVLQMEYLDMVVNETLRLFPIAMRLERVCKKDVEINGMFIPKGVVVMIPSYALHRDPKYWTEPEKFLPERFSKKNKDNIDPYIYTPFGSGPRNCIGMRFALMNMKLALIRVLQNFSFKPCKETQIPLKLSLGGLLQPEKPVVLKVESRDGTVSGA
smiles,measurement,setting,value
Clc1ccccc1C(c1ccccc1)(c1ccccc1)n1ccnc1 [Clotrimazole],IC50 with CYP3A4 lower than the values observed with CYP2B6 and CYP2C19,recombinant human CYP3A4 [1],1–2 orders of magnitude
same,IC50,recombinant human CYP3A5 [2],0.164 ± 0.039 µM
same,IC50,"[3]; read-out: IC50 (Clotrimazole), SS(2C19), 30 μM C152",0.202 ± 0.113 µM
"CC[C@@]1(c2ccccc2)NC(=O)N(Cc2ccccc2)C1=O [(+)-N-3-Benzylnirvanol, (S)-(+)-N-3-benzylnirvanol]",Maximal inhibition ((+)-N-3-Benzylnirvanol),human liver microsomes [4]; HLM(FVT),62 ± 9%
same,Maximal inhibition ((+)-N-3-Benzylnirvanol),human liver microsomes [4]; HLM(IHG),47 ± 12%
same,Maximal inhibition ((+)-N-3-Benzylnirvanol),human liver microsomes [4]; HLM(LBA)+CYP2E1,78 ± 36%
same,Maximal inhibition ((+)-N-3-Benzylnirvanol),human liver microsomes [4]; HLM(LBA),57 ± 10%
same,Maximal inhibition ((+)-N-3-Benzylnirvanol),human liver microsomes [4]; HLM(LFJ)+CYP2E1,95 ± 6%
same,Maximal inhibition ((+)-N-3-Benzylnirvanol),human liver microsomes [4]; HLM(LFJ),79 ± 22%
same,Maximal inhibition ((+)-N-3-Benzylnirvanol),human liver microsomes [4]; HLM(NQO),78 ± 43%
same,Maximal inhibition ((+)-N-3-Benzylnirvanol),human liver microsomes [4]; HLM(ODN),65 ± 4%
same,IC50,human liver microsomes [4]; HLM(FVT),11 ± 4 µM
same,IC50,human liver microsomes [4]; HLM(IHG),16 ± 2 µM
same,IC50,human liver microsomes [4]; HLM(LBA)+CYP2E1,26 ± 10 µM
same,IC50,human liver microsomes [4]; HLM(LBA),0.51 ± 0.03 µM
same,IC50,human liver microsomes [4]; HLM(LFJ)+CYP2E1,12 ± 2 µM
same,IC50,human liver microsomes [4]; HLM(LFJ),0.49 ± 0.12 µM
same,IC50,human liver microsomes [4]; HLM(NQO),0.46 ± 0.39 µM
same,IC50,human liver microsomes [4]; HLM(ODN),19 ± 15 µM
same,Maximal inhibition ((+)-N-3-Benzylnirvanol),"recombinant human CYP2B6 [5]; SS(2B6), 30 μM C152",81 ± 7%
same,IC50,"recombinant human CYP2B6 [5]; read-out: IC50 ((+)-N-3-Benzylnirvanol), SS(2B6), 30 μM C152",8.5 ± 2.3 µM
same,Maximal inhibition ((+)-N-3-Benzylnirvanol),"recombinant human CYP3A4 [6]; SS(3A4), 30 μM C152",59 ± 10%
same,IC50,"recombinant human CYP3A4 [6]; read-out: IC50 ((+)-N-3-Benzylnirvanol), SS(3A4), 30 μM C152",27 ± 3 µM
same,Maximal inhibition ((+)-N-3-Benzylnirvanol),recombinant human CYP3A5 [7],78 ± 21%
same,IC50,recombinant human CYP3A5 [7]; read-out: IC50 ((+)-N-3-Benzylnirvanol),6.6 ± 1.5 µM
"CN(C)c1ccc2c(C(F)(F)F)cc(=O)oc2c1 [C152, 7-Dimethylamino-4-trifluromethylcoumarin]",S50,recombinant human CYP2B6 [8],1.8 ± 0.2 µM
same,Vmax,recombinant human CYP2B6 [8],44.2 ± 14.8 min⁻¹
same,S50,[9],5.7 ± 1.1 µM
same,Vmax,[9],8.3 ± 3.4 min⁻¹
same,N (the Hill coefficient),recombinant human CYP3A4 [10]; SS(3A4),1.61 ± 0.24
same,S50,recombinant human CYP3A4 [10]; SS(3A4),4.5 ± 1.2 µM
same,Vmax,recombinant human CYP3A4 [10]; SS(3A4),23.8 ± 4.2 min⁻¹
same,N (the Hill coefficient),recombinant human CYP3A4 [10]; SS(3A4)+CYP2E1,1.28 ± 0.31
same,S50,recombinant human CYP3A4 [10]; SS(3A4)+CYP2E1,10.2 ± 2.8 µM
same,Vmax,recombinant human CYP3A4 [10]; SS(3A4)+CYP2E1,34.0 ± 4.6 min⁻¹
same,S50,recombinant human CYP3A5 [11],16.4 ± 4.8 µM
same,Vmax,recombinant human CYP3A5 [11],8.8 ± 1.0 min⁻¹
same,N (the Hill coefficient),human liver microsomes [12]; [15],1.41 ± 0.66
same,S50,human liver microsomes [12]; [15],1.73 ± 0.66 µM
same,Vmax,human liver microsomes [12]; [15],20.9 ± 5.7 min⁻¹
same,N (the Hill coefficient),human liver microsomes [12]; HLM(FVT)+CYP2E1,1.28 ± 0.33
same,S50,human liver microsomes [12]; HLM(FVT)+CYP2E1,18.9 ± 1.2 µM
same,Vmax,human liver microsomes [12]; HLM(FVT)+CYP2E1,20.6 ± 1.3 min⁻¹
same,N (the Hill coefficient),"human liver microsomes [12]; HLM(FVT), intact",1.49 ± 0.67
same,S50,"human liver microsomes [12]; HLM(FVT), intact",14.2 ± 1.0 µM
same,Vmax,"human liver microsomes [12]; HLM(FVT), intact",33.6 ± 2.1 min⁻¹
same,N (the Hill coefficient),"human liver microsomes [12]; HLM(IHG), intact",1.03 ± 0.09
same,S50,"human liver microsomes [12]; HLM(IHG), intact",4.7 ± 2.7 µM
same,Vmax,"human liver microsomes [12]; HLM(IHG), intact",46.3 ± 3.8 min⁻¹
same,N (the Hill coefficient),human liver microsomes [12]; HLM(LBA)+CYP2E1,1.14 ± 0.26
same,S50,human liver microsomes [12]; HLM(LBA)+CYP2E1,8.8 ± 2.1 µM
same,Vmax,human liver microsomes [12]; HLM(LBA)+CYP2E1,62.6 ± 5.6 min⁻¹
same,N (the Hill coefficient),"human liver microsomes [12]; HLM(LBA), intact",1.76 ± 0.33
same,S50,"human liver microsomes [12]; HLM(LBA), intact",4.4 ± 1.5 µM
same,Vmax,"human liver microsomes [12]; HLM(LBA), intact",75.0 ± 10.6 min⁻¹
same,N (the Hill coefficient),human liver microsomes [12]; HLM(LFJ)+CYP2E1,1.37 ± 0.44
same,S50,human liver microsomes [12]; HLM(LFJ)+CYP2E1,11.6 ± 2.8 µM
same,Vmax,human liver microsomes [12]; HLM(LFJ)+CYP2E1,44.7 ± 5.9 min⁻¹
same,N (the Hill coefficient),"human liver microsomes [12]; HLM(LFJ), intact",1.94 ± 0.51
same,S50,"human liver microsomes [12]; HLM(LFJ), intact",4.8 ± 1.2 µM
same,Vmax,"human liver microsomes [12]; HLM(LFJ), intact",47.8 ± 3.2 min⁻¹
same,N (the Hill coefficient),"human liver microsomes [12]; HLM(NQO), intact",1.03 ± 0.05
same,S50,"human liver microsomes [12]; HLM(NQO), intact",3.7 ± 1.9 µM
same,Vmax,"human liver microsomes [12]; HLM(NQO), intact",29.9 ± 3.6 min⁻¹
same,N (the Hill coefficient),human liver microsomes [12]; [16],1.73 ± 0.69
same,S50,human liver microsomes [12]; [16],1.83 ± 0.96 µM
same,Vmax,human liver microsomes [12]; [16],22.4 ± 1.3 min⁻¹
same,N (the Hill coefficient),"human liver microsomes [12]; HLM(ODN), intact",1.40 ± 0.17
same,S50,"human liver microsomes [12]; HLM(ODN), intact",3.3 ± 0.5 µM and 3.29 ± 0.53 µM
same,Vmax,"human liver microsomes [12]; HLM(ODN), intact",37.1 ± 10.2 min⁻¹
same,N (the Hill coefficient),human liver microsomes [12]; HLM(S9)+CYP2E1,1.16 ± 0.37
same,S50,human liver microsomes [12]; HLM(S9)+CYP2E1,3.2 ± 1.5 µM
same,Vmax,human liver microsomes [12]; HLM(S9)+CYP2E1,6.6 ± 0.8 min⁻¹
same,N (the Hill coefficient),"human liver microsomes [12]; HLM(S9), intact",1.27 ± 0.25
same,S50,"human liver microsomes [12]; HLM(S9), intact",5.5 ± 2.9 µM
same,Vmax,"human liver microsomes [12]; HLM(S9), intact",17.8 ± 4.6 min⁻¹
same,Km,human liver microsomes [12]; [17],3.29 ± 0.53 µM
same,N,human liver microsomes [12]; [17],1.40 ± 0.17
same,Vmax,human liver microsomes [12]; [17],37.1 ± 10.2 min⁻¹
same,Km,human liver microsomes [12]; [18],11.4 ± 0.2 µM
same,N,human liver microsomes [12]; [18],1.30 ± 0.21
same,Vmax,human liver microsomes [12]; [18],29.1 ± 1.3 min⁻¹
same,Km,human liver microsomes [12]; [19],4.15 ± 1.33 µM
same,N,human liver microsomes [12]; [19],1.04 ± 0.05
same,Vmax,human liver microsomes [12]; [19],60.1 ± 10.9 min⁻¹
same,Km,human liver microsomes [12]; [20],6.88 ± 2.47 µM
same,N,human liver microsomes [12]; [20],1.14 ± 0.23
same,Vmax,human liver microsomes [12]; [20],56.2 ± 4.9 min⁻¹
same,Km,human liver microsomes [12]; [21],4.57 ± 2.57 µM
same,N,human liver microsomes [12]; [21],1.38 ± 0.24
same,Vmax,human liver microsomes [12]; [21],75.3 ± 25.2 min⁻¹
same,S50,CYP2C8,12 ± 6 µM
same,turnover,CYP2C8,2.6 ± 0.8 min⁻¹
same,ability of CYP2A6 to catalyze demethylation of C152,CYP2A6 [13],lacks any ability to catalyze the demethylation of C152
same,activity of CYP2E1 with C152,CYP2E1,do not exhibit any activity
"O=c1ccc2ccccc2o1 [Coumarin, coumarin]",N,CYP2A6 [14],1.66 ± 0.41
same,Vmax,CYP2A6 [14],5.6 ± 0.5 min⁻¹
Clc1ccc(Cc2ccncc2)cc1,Maximal inhibition,human liver microsomes [4]; HLM(FVT)+CYP3A5 (12.5% of total P450),89 ± 8%
same,Maximal inhibition,human liver microsomes [4]; HLM(FVT),79 ± 17%
same,Maximal inhibition,human liver microsomes [4]; HLM(IHG),90 ± 3%
same,Maximal inhibition,human liver microsomes [4]; HLM(LBA),88 ± 12%
same,Maximal inhibition,human liver microsomes [4]; HLM(LFJ),84 ± 23%
same,Maximal inhibition,human liver microsomes [4]; HLM(NQO),92 ± 4%
same,Maximal inhibition,human liver microsomes [4]; HLM(ODN)+CYP3A5 (12.5% of total P450),70 ± 3%
same,Maximal inhibition,human liver microsomes [4]; HLM(ODN),91 ± 2%
same,IC50,recombinant human CYP2B6 [5],0.035 ± 0.01 µM
same,Maximal inhibition,"recombinant human CYP2B6 [5]; SS(2B6), 30 μM C152",95 ± 3%
same,IC50,recombinant human CYP3A4 [6],0.225 ± 0.073 µM
same,IC50,[3],0.215 ± 0.118 µM
